System: Caco-2 cell barrier
Assay: Caco-2 cell barrier integrity (TEER and capacitance, cellZscope2)
Format: cell-based
Conditions: 20 h after addition, value before addition = 100%; 10 mM EGTA
Experimental: Twenty thousand CaCo-2 cells were seeded on 24-well ThinCerts (pre-coated with FCS for 30 min). In the lower compartment (basolateral), 1 ml culture medium per well was added. As a control, half of the ThinCerts were not seeded with cells. The ThinCerts were transferred to the cellZscope2 (nanoAnalytics). Two hundred µl of medium was added to the ThinCerts to reach a final volume of 300 µl in the upper compartment (apical). The TEER and capacitance were measured every hour. After 5 days, the TEER reached a constant value of 700–900 Ohm*cm² and the medium was replaced with EMEM with 2% FCS, 2 mM L-glutamine, 1x non-essential amino acids, and 110 nM hydrocortisone. The TEER and capacitance were measured every hour for 1 day. Sc1o (0 µM, 1 µM, 10 µM, 25 µM, 50 µM) diluted in EMEM with 2% FCS, 2 mM L-glutamine, 1x non-essential amino acids, and 110 nM hydrocortisone were added to the apical compartment. As a control, 10 mM of EGTA was used. The cellZscope2 module was transferred into the incubator for 24 h, and every 30 min the TEER and capacitance were detected. TEER and capacitance values at the time point of adding the compound solution were used as references to calculate the alteration (t0h-value). […] At time point 0h and after 24 h the medium of the basolateral and apical compartment was collected and stored at −20 °C and analysed by LC-MS/MS.

For `O=C(O)CN(CCOCCOCCN(CC(=O)O)CC(=O)O)CC(=O)O` [EGTA, Ethylene glycol-bis(β-aminoethyl ether)-N,N,N′,N′-tetraacetic acid], which “Relative TEER” value is on record?
Its value is 0.12 ± 0.03%.

What about the Relative capacitance of the same compound?
The Relative capacitance was 481 ± 168%.

From article PMC7200784, “In-vitro safety and off-target profile of the anti-parasitic arylmethylaminosteroid 1o” (Scientific Reports, 2020)
